In paper PMC3789677, “Select Dietary Phytochemicals Function as Inhibitors of COX-1 but Not COX-2” (PLoS ONE, 2013):

Tests used:
COX-1 = molecular target: T1, COX-1 (Ovis aries, UniProt P05979); test: In vitro COX enzyme assay (COX Inhibitor Screening Kit, Cayman); assay type: biochemical; conditions: means ± S.E.M. of 3 independent experiments
T1 construct: purchased Cayman Chemical Company (Ann Arbor, MI)
T1 sequence (P05979 25-600): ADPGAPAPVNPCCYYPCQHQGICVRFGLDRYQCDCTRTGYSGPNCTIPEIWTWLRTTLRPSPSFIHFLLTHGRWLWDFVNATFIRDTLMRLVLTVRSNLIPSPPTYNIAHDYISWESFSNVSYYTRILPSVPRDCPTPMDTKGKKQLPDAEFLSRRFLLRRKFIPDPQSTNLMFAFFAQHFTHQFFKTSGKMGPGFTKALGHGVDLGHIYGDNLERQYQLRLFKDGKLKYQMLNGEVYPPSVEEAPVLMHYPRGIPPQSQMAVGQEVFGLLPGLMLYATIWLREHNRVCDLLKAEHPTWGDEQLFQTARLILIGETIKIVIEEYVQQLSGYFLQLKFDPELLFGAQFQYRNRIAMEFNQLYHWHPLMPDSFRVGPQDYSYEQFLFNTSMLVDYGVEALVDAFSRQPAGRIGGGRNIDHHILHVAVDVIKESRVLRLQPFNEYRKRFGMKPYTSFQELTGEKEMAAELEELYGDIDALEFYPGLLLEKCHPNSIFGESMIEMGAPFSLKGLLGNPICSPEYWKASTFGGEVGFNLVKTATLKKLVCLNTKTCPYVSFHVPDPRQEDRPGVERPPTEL
Description: (§1) COX activity was evaluated using a COX Inhibitor Screening Kit from Cayman Chemical Company (Ann Arbor, MI) according to the manufacturer’s instructions.

COX-2 = molecular target: T2, COX-2 (Homo sapiens, UniProt P35354); test: as above; assay type: biochemical; conditions: means ± S.E.M. of 3 independent experiments
T2 construct: purchased Cayman Chemical Company (Ann Arbor, MI)
T2 sequence (P35354 18-604): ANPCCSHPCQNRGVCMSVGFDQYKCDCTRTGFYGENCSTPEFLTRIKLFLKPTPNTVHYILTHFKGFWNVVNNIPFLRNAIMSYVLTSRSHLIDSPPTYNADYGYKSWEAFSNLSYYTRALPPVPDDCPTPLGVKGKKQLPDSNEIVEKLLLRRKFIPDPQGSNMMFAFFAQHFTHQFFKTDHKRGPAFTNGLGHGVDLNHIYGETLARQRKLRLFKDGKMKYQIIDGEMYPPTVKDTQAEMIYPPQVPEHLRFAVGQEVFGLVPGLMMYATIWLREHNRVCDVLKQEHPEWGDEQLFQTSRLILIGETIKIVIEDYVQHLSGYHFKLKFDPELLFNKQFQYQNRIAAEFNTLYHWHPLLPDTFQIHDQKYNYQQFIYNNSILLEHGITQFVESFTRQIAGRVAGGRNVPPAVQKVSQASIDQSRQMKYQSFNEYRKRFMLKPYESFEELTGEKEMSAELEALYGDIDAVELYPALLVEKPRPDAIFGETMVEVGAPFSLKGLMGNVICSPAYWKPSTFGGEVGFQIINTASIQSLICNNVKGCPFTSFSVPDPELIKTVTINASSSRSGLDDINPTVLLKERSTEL
Description: as §1

[1] = test system: human umbilical vein endothelial cells (HUVECs); test: TXB2 and 6-keto PGF1α assay in HUVECs (ratio as cardiovascular toxicity biomarker); assay type: cell-based; conditions: 3 µM
Description: Cells (6×10^5) were seeded in a six-well plate in the presence of 10% FBS. At 70-80% confluence, cells were pretreated with vehicle or individual compounds in 1 mL fresh medium for 2 h. […] Supernatant fractions were collected for prostaglandin measurement using enzyme immunoassay kits (Cayman Chemical Company).
Figure 2 Effects of dietary phytochemicals on (A) TXB2 and (B) 6-keto-PGF1α under physiological conditions. HUVECs were seeded in a six-well-plate (6×10^5 cells per well). At 70-80% confluence, 1 mL fresh medium containing DMSO or 3 µM of each individual compound was added and cells were further incubated for 8 h. Supernatant fractions were collected for prostaglandin measurement. (C) The ratio of TXB2/6-keto-PGF1α. Data are presented as means ± S.E.M (n = 4) and the asterisk(s) indicate a significant (*, p < 0.05; ***, p < 0.001) difference versus the vehicle control group.

Structure (SMILES)	IC50 (COX-1) [µM]	IC50 (COX-2) [µM]	ratio of TXB2/6-keto-PGF1α ([1]; physiological conditions, 8 h (Figure 2))	ratio of TXB2/6-keto-PGF1α ([1]; pro-inflammatory conditions, 2 h pretreatment then IL-1β 17.5 ng/mL for 8 h (Figure 3))
O=c1cc(-c2ccc(O)cc2)oc2cc(O)cc(O)c12 [Apigenin]	94.1 ± 12.3	–	–	–
COc1cc(/C=C/C(=O)CC(=O)/C=C/c2ccc(O)c(OC)c2)ccc1O [Curcumin]	330 ± 34.3	–	–	–
O=C(O[C@@H]1Cc2c(O)cc(O)cc2O[C@@H]1c1cc(O)c(O)c(O)c1)c1cc(O)c(O)c(O)c1 [EGCG]	17.9 ± 4.2	28.6 ± 3.8	most potent inhibitory effect	most potent inhibitory effect
O=c1c(-c2ccc(O)cc2)coc2cc(O)cc(O)c12 [Genistein]	9.9 ± 2.3	256 ± 35.7	–	–
O=c1c(O)c(-c2ccc(O)cc2)oc2cc(O)cc(O)c12 [Kaempferol]	111 ± 7.5	236 ± 19.7	–	–
O=C1C[C@@H](c2ccc(O)cc2)Oc2cc(O)cc(O)c21 [Naringenin]	> 400	> 400	–	–
O=c1c(O)c(-c2ccc(O)c(O)c2)oc2cc(O)cc(O)c12 [Quercetin]	> 400	> 400	–	–
Oc1ccc(/C=C/c2cc(O)cc(O)c2)cc1 [Resveratrol]	3.4 ± 1.1	–	–	–
